The experiment addresses PD-L1 His protein / PD-1 Fc protein (Homo sapiens, UniProt Q9NZQ7). The experiment in a line: HTRF Assay (PD-1/PD-L1 interaction). Format: binding. Particulars: PD-L1 His 6 nM, PD-1 Fc 6 nM. The method in brief:
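Compounds tested from 20 μM down to 0.001 μM (3-fold) against 6 nM PD-L1 His and 6 nM PD-1 Fc, 15 min room temperature incubation. Detection after 1 h at room temperature with Tb cryptate anti-6HIS and XL665 anti-human IgG reagents (mixture at 0.35 nM and 6.7 nM), HTRF signal.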
On the technique in general: TR-FRET usually uses a lanthanide donor and a delayed reading to cut background.
PD-L1 His protein / PD-1 Fc protein, sequence (Q9NZQ7 19-238 limits assumed): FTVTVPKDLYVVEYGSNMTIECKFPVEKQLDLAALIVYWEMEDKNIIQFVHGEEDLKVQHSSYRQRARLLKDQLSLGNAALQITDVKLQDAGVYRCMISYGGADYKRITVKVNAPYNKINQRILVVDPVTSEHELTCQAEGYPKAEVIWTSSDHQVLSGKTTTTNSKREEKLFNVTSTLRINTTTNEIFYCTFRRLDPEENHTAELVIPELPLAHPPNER
A word on the IC50: it is the midpoint of a concentration-inhibition curve. With `COc1nc(-c2cccc(-c3cccc(-c4ccc5nn(CCCN(CC(C)C)CC(C)C)c(=O)n5c4)c3Cl)c2Cl)ccc1CNC[C@@H]1CCC(=O)N1` [Example 392, (S)-6-(2,2′-Dichloro-3′-(6-methoxy-5-((((5-oxopyrrolidin-2-yl)methyl)-amino)-methyl)pyridin-2-yl)-[1,1′-biphenyl]-3-yl)-2-(3-(diisobutylamino)propyl)-[1,2,4]triazolo[4,3-a]pyridin-3(2H)-one], the IC50 is 6.7 nM.
Consider `COc1nc(-c2cccc(-c3cccc(-c4ccn5c(=O)c(CNC[C@@H]6CCC(=O)N6)cnc5c4)c3Cl)c2C#N)ccc1CNC[C@@H]1CCC(=O)N1` [Example 145, 2′-Chloro-3-(6-methoxy-5-(((((S)-5-oxopyrrolidin-2-yl)methyl)amino)methyl)pyridin-2-yl)-3′-(4-oxo-3-(((((S)-5-oxopyrrolidin-2-yl)methyl)amino)methyl)-4H-pyrido[1,2-a]pyrimidin-8-yl)-[1,1′-biphenyl]-2-carbonitrile], for which inhibition was half-maximal at 2.2 nM (IC50).
In turn, `COc1nc(-c2cccc(-c3cccc(-c4ccc(CN(C=O)C[C@@H]5CCC(=O)N5)c(OC)n4)c3Cl)c2Cl)ccc1CNC[C@@H]1CCC(=O)N1` [Example 330, N-((6-(2,2′-Dichloro-3′-(6-methoxy-5-(((((S)-5-oxopyrrolidin-2-yl)methyl)amino)methyl)pyridin-2-yl)-[1,1′-biphenyl]-3-yl)-2-methoxypyridin-3-yl)methyl)-N—(((S)-5-oxopyrrolidin-2-yl)methyl)formamide] came in with a 50% inhibitory concentration (IC50) of 0.8 nM.
Turning to `COc1nc(-c2cccc(-c3cccc(-c4ccn5c(=O)c(CNCC6(O)CC6)cnc5c4)c3Cl)c2Cl)ccc1CNC[C@@H]1CCC(=O)N1` [Example 234, (S)-8-(2,2′-Dichloro-3′-(6-methoxy-5-((((5-oxopyrrolidin-2-yl)methyl)amino)methyl)pyridin-2-yl)-[1,1′-biphenyl]-3-yl)-3-((((1-hydroxycyclopropyl)methyl)amino)methyl)-4H-pyrido[1,2-a]pyrimidin-4-one], the IC50 came to 0.1 nM.
Next, `COc1nc(-c2cccc(-c3cccc(-c4ccn5c(=O)c(CNCC6NC(=O)CC6(C)C)cnc5c4)c3Cl)c2Cl)ccc1CNC[C@@H]1CCC(=O)N1` (stereo partly drawn) [Example 359, 8-(2,2′-dichloro-3′-(6-methoxy-5-(((((S)-5-oxopyrrolidin-2-yl)methyl)-amino)-methyl)-pyridin-2-yl)-[1,1′-biphenyl]-3-yl)-3-((((3,3-dimethyl-5-oxopyrrolidin-2-yl)methyl)amino)methyl)-4H-pyrido[1,2-a]pyrimidin-4-one]: 67 nM; `COc1nc(-c2cccc(-c3cccc(-c4ccn5c(=O)c(CNC[C@@H]6CCC(=O)N6)cnc5c4)c3Cl)c2Cl)ccc1CNC[C@H](C)O` [Example 197, 8-(2,2′-Dichloro-3′-(5-((((S)-2-hydroxypropyl)amino)methyl)-6-methoxypyridin-2-yl)-[1,1′-biphenyl]-3-yl)-3-(((((S)-5-oxopyrrolidin-2-yl)methyl)amino)methyl)-4H-pyrido[1,2-a]pyrimidin-4-one]: 0.2 nM; `COc1nc(-c2cccc(-c3cccc(-c4ccn5c(=O)c(CNC[C@@H]6CCC(=O)N6)cnc5c4)c3Cl)c2Cl)ccc1CN1CC(CO)(CO)C1` [Example 159, (S)-8-(3′-(5-((3,3-Bis(hydroxymethyl)azetidin-1-yl)methyl)-6-methoxypyridin-2-yl)-2,2′-dichloro-[1,1′-biphenyl]-3-yl)-3-((((5-oxopyrrolidin-2-yl)methyl)amino)methyl)-4H-pyrido[1,2-a]pyrimidin-4-one]: 1.3 nM.
As for `COC(=O)C1CN(Cc2cnc3cc(-c4cccc(-c5cccc(-c6ccc(CNC[C@@H]7CCC(=O)N7)c(OC)n6)c5Cl)c4Cl)cc(C)n3c2=O)C1` [Example 291, (S)-Methyl 1-((8-(2,2′-dichloro-3′-(6-methoxy-5-((((5-oxopyrrolidin-2-yl)methyl)amino)methyl)pyridin-2-yl)-[1,1′-biphenyl]-3-yl)-6-methyl-4-oxo-4H-pyrido[1,2-a]pyrimidin-3-yl)methyl)azetidine-3-carboxylate], the IC50 came out at 0.1 nM.
In the case of `COc1nc(-c2cccc(-c3cccc(-c4ccc5nc(CNC[C@@H]6CCC(=O)N6)n(C)c5n4)c3Cl)c2Cl)ccc1CNC[C@@H]1CCC(=O)N1` [Example 314, (S)-5-((((6-(2,2′-Dichloro-3′-(3-methyl-2-(((((S)-5-oxopyrrolidin-2-yl)methyl)amino)methyl)-3H-imidazo[4,5-b]pyridin-5-yl)-[1,1′-biphenyl]-3-yl)-2-methoxypyridin-3-yl)methyl)amino)methyl)pyrrolidin-2-one], the concentration for half-maximal inhibition (IC50) worked out at 3.9 nM.
On to `COc1nc(-c2cccc(-c3cccc(-c4cc5c(=O)n(C)c(CNC(C)C)nn5c4)c3Cl)c2Cl)ccc1CNC[C@@H]1CCC(=O)N1` [Example 477, 6-[2-Chloro-3-[2-chloro-3-[6-methoxy-5-[[[(2S)-5-oxopyrrolidin-2-yl]methylamino]methyl]-2-pyridyl]phenyl]phenyl]-2-[(isopropylamino)methyl]-3-methyl-pyrrolo[2,1-f][1,2,4]triazin-4-one], for which the IC50 turned out to be 17 nM.
For `COc1nc(-c2cccc(-c3cccc(-c4ccc5nc(CNC[C@@H]6CCC(=O)N6)oc5c4)c3Cl)c2Cl)ccc1CNC[C@@H]1CCC(=O)N1` [Example 248, (S)-5-((((6-(2,2′-Dichloro-3′-(2-(((((S)-5-oxopyrrolidin-2-yl)methyl)amino)methyl)benzo[d]oxazol-6-yl)-[1,1′-biphenyl]-3-yl)-2-methoxypyridin-3-yl)methyl)amino)methyl)pyrrolidin-2-one], the IC50 came out at 250 nM.
In the case of `COc1nc(-c2cccc(-c3cccc(-c4ccc5nc(CN6CC(C)(O)C6)cc(=O)n5c4)c3Cl)c2Cl)ccc1CNC[C@@H]1CCC(=O)N1` [Example 222, (S)-7-(2,2′-dichloro-3′-(6-methoxy-5-((((5-oxopyrrolidin-2-yl)methyl)amino)methyl)pyridin-2-yl)-[1,1′-biphenyl]-3-yl)-2-((3-hydroxy-3-methylazetidin-1-yl)methyl)-4H-pyrido[1,2-a]pyrimidin-4-one] it was 0.2 nM; in that of `COc1nc(-c2cccc(-c3cccc(-c4cc5c(=O)n(C)c(CNC[C@@H]6CCCO6)nn5c4)c3Cl)c2Cl)ccc1CNC[C@@H]1CCC(=O)N1` [Example 474, 6-[2-Chloro-3-[2-chloro-3-[6-methoxy-5-[[[(2S)-5-oxopyrrolidin-2-yl]methylamino]methyl]-2-pyridyl]phenyl]phenyl]-3-methyl-2-[[[(2S)-tetrahydrofuran-2-yl]methylamino]methyl]pyrrolo[2,1-f][1,2,4]triazin-4-one], 21 nM; in that of `COc1nc(-c2cccc(-c3cccc(-c4ccn5c(=O)c(CN6CCN7C(=O)CCC7C6)cnc5c4)c3Cl)c2Cl)ccc1CNC[C@@H]1CCC(=O)N1` (stereo partly drawn) [Example 152, 8-(2,2′-Dichloro-3′-(6-methoxy-5-(((((S)-5-oxopyrrolidin-2-yl)methyl)amino)methyl)pyridin-2-yl)-[1,1′-biphenyl]-3-yl)-3-((6-oxohexahydropyrrolo[1,2-a]pyrazin-2(1H)-yl)methyl)-4H-pyrido[1,2-a]pyrimidin-4-one], 3.1 nM.
`COc1nc(-c2cccc(-c3cccc(-c4cc(OC)c5c(CNC[C@@H]6CCC(=O)N6)cnn5c4)c3Cl)c2Cl)ccc1CNC[C@@H]1CCC(=O)N1` [Example 397] returned a half-maximal inhibitory concentration (IC50) of 290 nM.
In the case of `COc1nc(-c2cccc(-c3cccc(-c4ccc5nc(CN[C@H]6C[C@H](O)C6)cc(=O)n5c4)c3Cl)c2Cl)ccc1CNC[C@@H]1CCC(=O)N1` [Example 221, 7-(2,2′-dichloro-3′-(6-methoxy-5-(((((S)-5-oxopyrrolidin-2-yl)methyl)amino)methyl)pyridin-2-yl)-[1,1′-biphenyl]-3-yl)-2-((((1r,3r)-3-hydroxycyclobutyl)amino)methyl)-4H-pyrido[1,2-a]pyrimidin-4-one], 0.6 nM corresponded to half-maximal inhibition (IC50).
As for `COc1nc(-c2cccc(-c3cccc(-c4ccn5c(=O)c(CNC[C@H](C)OC)cnc5c4)c3Cl)c2Cl)ccc1CNC[C@@H]1CCC(=O)N1` [Example 302, 8-[2-Chloro-3-[2-chloro-3-[6-methoxy-5-[[[(2S)-5-oxopyrrolidin-2-yl]methylamino]methyl]-2-pyridyl]phenyl]phenyl]-3-[[[(2S)-2-methoxypropyl]amino]methyl]pyrido[1,2-a]pyrimidin-4-one], the IC50 was 35 nM.
In the case of `COc1nc(-c2cccc(-c3cccc(-c4ccn5c(=O)c(CNC6CCN(C(C)=O)CC6)cnc5c4)c3Cl)c2Cl)ccc1CNC1CCN(C(C)=O)CC1` [Example 322, 3-[[(1-Acetyl-4-piperidyl)amino]methyl]-8-[3-[3-[5-[[(1-acetyl-4-piperidyl)amino]methyl]-6-methoxy-2-pyridyl]-2-chloro-phenyl]-2-chloro-phenyl]pyrido[1,2-a]pyrimidin-4-one], the IC50 came to 0.1 nM.
On to `COc1nc(-c2cccc(-c3cccc(-c4cc(C)n5c(=O)c(C6=NCC(O)CN6)cnc5c4)c3Cl)c2Cl)ccc1CNC[C@@H]1CCC(=O)N1` (stereo partly drawn) [Example 323, 8-(2,2′-Dichloro-3′-(6-methoxy-5-(((((S)-5-oxopyrrolidin-2-yl)methyl)amino)methyl)pyridin-2-yl)-[1,1′-biphenyl]-3-yl)-3-(5-hydroxy-1,4,5,6-tetrahydropyrimidin-2-yl)-6-methyl-4H-pyrido[1,2-a]pyrimidin-4-one], for which half-maximal inhibition (IC50) was put at 5.9 nM.
`COc1nc(-c2cccc(-c3cccc(-c4cc5c(=O)n(C)c(CN6CC(C)(O)C6)nn5c4)c3Cl)c2Cl)cc(Cl)c1CNC[C@@H]1CCC(=O)N1` [Example 492, (S)-6-(2,2′-Dichloro-3′-(4-chloro-6-methoxy-5-((((5-oxopyrrolidin-2-yl)methyl)amino)methyl)pyridin-2-yl)-[1,1′-biphenyl]-3-yl)-2-((3-hydroxy-3-methylazetidin-1-yl)methyl)-3-methylpyrrolo[2,1-f][1,2,4]triazin-4(3H)-one] returned an IC50 of 0.6 nM.

Source of the values: US20230143612A1 (Arbutus Biopharma Corporation, priority 2020, published 2023).
